Results on 20 compounds are retold here after US5728830A, “Farnesyltransferase inhibitor” (Kyowa Hakko Kogyo Co., Ltd., priority 1993, dated 1998).

Converted amounts (≈) assume the structure as drawn. Where two headings read alike, the source gives them in different places.

The test system of test [1] is Bacillus subtilis No. 10707. Kind of test: Antibacterial Activity, agar dilution method, Bacillus subtilis. The format is cell-based. On the procedure: (§1) The antibacterial activity was measured by the agar dilution method using a medium (pH 7) prepared by dissolving 3 g of Bacto-tryptone (Difco), 3 g of meat extract, 1 g of yeast extract, 1 g of glucose, and 16 g of agar in 1 liter of water. The antibacterial activity of Compounds I are expressed in terms of minimum growth inhibitory concentration (MIC).
BS; Bacillus subtilis No. 10707

In test [2] the target is T1, farnesyltransferase (FTase) (Bos taurus, UniProt P29702+P49355).
T1 construct: An extract of minced bovine brain was subjected to column chromatography on DEAE-Sephacel (Pharmacia); from tissue; host or cells: bovine brain
The test is described as follows: Farnesyltransferase Inhibitory Activity ([3H]SPA FTase assay, farnesylation of C-terminal peptide of lamin B). The format is biochemical. The conditions noted are these: bovine brain crude enzyme. Here is the method: Farnesyltransferase Inhibitory Activity
An extract of minced bovine brain was subjected to column chromatography on DEAE-Sephacel (Pharmacia). The active fraction was concentrated by ultrafiltration and dialyzed against a mixture of 20 mM Tris-HCl (pH 8.0), 50 mM NaCl, […], 1 mM dithiothreitol (DTT), and 0.2 mM phenylmethylsulfonyl fluoride (PMSF). The resulting dialysate was used as a crude enzyme liquid of farnesyltransferase (FTase). The measurement of activity was carried out by means of an FTase [^3 H]SPA enzyme assay kit (Amersham) using the enzyme obtained by the above method.

Test [3] has as its system BALB 3T3/H-ras cells. The test is described as follows: Anticell Activity (growth inhibition of BALB 3T3 cells transformed by the oncogene H-ras, Giemsa staining). In kind it is cell-based. The conditions noted are these: Mus musculus, 72 hours, read-out: IC50 Anti-BALB 3T3/H-ras Cell Activity. Here is the method: The anticell activity was measured using BALB 3T3 cells transformed by the oncogene H-ras (hereinafter referred to as BALB 3T3/H-ras cells).
BALB 3T3/H-ras cells were suspended in a DME medium (Nissui) containing 10% bovine fetal serum (hereinafter referred to as medium A) to a cell concentration of 3.0×10^4 cells/ml. Each well of a 96-well microtiter plate was inoculated with 0.1 ml of the cell suspension, and the system was cultured in a CO2 gas incubator at 37° C. for 20 hours. To each well was added 0.1 ml of a sample (test compound) diluted appropriately with medium A, followed by culturing in the CO2 gas incubator at 37° C. for 72 hours. The culture supernatant was removed, and the residue was washed once with physiological saline and treated with 0.1 ml of methanol for 10 minutes to immobilize the cells. The cells were stained with 0.1 ml of a Giemsa staining solution [Giemsa staining stock solution Merck Art9204 (Merck & Co., Inc.):physiological saline=1:10] for 5 minutes. The staining solution was removed, and the residue was washed once with 0.2 ml of water. The pigment was extracted with 0.2 ml of 0.1N hydrochloric acid, and the absorbance at 620 nm was measured with a microplate reader.

Test [4] deals with isogenic tumor in K-BALB mice. Kind of test: Antitumor Activity on Isogenic Tumor System in K-BALB Mice. In kind it is in vivo. The conditions noted are these: intraperitoneal, 5 consecutive days from 7th day after transplantation, BALB/c mouse. On the procedure: Antitumor Activity on Isogenic Tumor System in K-BALB Mice
The antitumor activity on an isogenic tumor system in K-BALB mice was measured according to the method described in Proc. Natl. Acad. Sci., 90, 2281 (1993). That is, an isogenic tumor in K-BALB mice was resected from a donor mouse, and a 2×2×2 (8) mm^3 tumor piece was transplanted to the subcutaneous site of the abdomen of a BALB/c mouse by means of a trocar. After the graft survival was confirmed on the 7th day from the transplantation, a test compound was intraperitoneally administered for 5 consecutive days from the same day. The longer diameter and shorter diameter of the tumor were measured with a sliding gauge, and the tumor volume was calculated according to the formula; (longer diameter)×(shorter diameter)^2 /2 [Cancer Chemother. Rep., Part III, 3, 1 (1972)]. The antitumor effect was evaluated in terms of T/C, the ratio of the tumor volume of a test compound-treated group (T) to that of an untreated group (C).

For test [5], the system named is Candida albicans ATCC 10231. The test is described as follows: Antibacterial Activity, agar dilution method, Candida albicans. The format is cell-based. On the procedure: as §1
CA; Candida albicans ATCC 10231
For orientation: In agar dilution, organisms are placed on agar that contains the substance at set levels.

Test [6] concerns Enterococcus faecium ATCC 10541. Kind of test: Antibacterial Activity, agar dilution method, Enterococcus faecium. In kind it is cell-based. On the procedure: as §1
EF; Enterococcus faecium ATCC 10541

Where [7] appears, read: Bacillus subtilis, NO.10707, pH 7, read-out: MIC BS.
[8] abbreviates: Candida albicans, ATCC10231, pH 7, read-out: MIC CA.
The mark [9] stands for this setting: ATCC10231, Candida albicans ATCC 10231, agar dilution, pH 7, read-out: MIC CA.
Setting [10] is: Bacillus subtilis No. 10707, agar dilution, pH 7, read-out: MIC BS.
Setting [11] is: Enterococcus faecium, ATCC10541, pH 7, read-out: MIC EF.

For orientation: MIC means the lowest concentration found to suppress growth. Regarding `COc1ccccc1N1C(=O)C2(CO)SSC1C(=O)N2C` (centres unmarked) [Compound I-14], in test [1] (setting [7]), the MIC stood at 7.3 µg/mL (≈ 22.4 µM). For the same compound, the IC50 was 6 µM in test [2] and 0.3 µM in test [3].
On to `CC(=O)SC1C(=O)N(c2ccccc2)C(SC(C)=O)C(=O)N1c1ccccc1` (centres unmarked) [Compound I-4], for which the IC50 in test [2] was 12 µM; in test [3], 0.9 µM. Further, the “T/C (ratio of tumor volume, treated to untreated)” value in test [4] (5.0 mg/kg) worked out at 0.41.
Turning to `CCOC(=O)SC1C(=O)N(c2ccccc2)C(SC(=O)OCC)C(=O)N1c1ccccc1` (centres unmarked) [Compound I-20], in test [2], the IC50 came to 45 µM.
Take `CC(=O)SC1C(=O)N(c2ccccc2)C(SC(C)=O)C(=O)N1C` (centres unmarked) [Compound I-1]: the IC50 in test [2] worked out at 5 µM; in test [3], 0.2 µM.
On to `CN1C(=O)C2(COCc3ccccc3)SSC1(COCc1ccccc1)C(=O)N2c1ccccc1` (centres unmarked) [Compound I-12], for which the minimal inhibitory concentration (MIC) in test [5] (setting [8]) and in test [1] (setting [7]) was 42 µg/mL (≈ 82.9 µM) each time. The IC50 in test [2] is 3 µM; in test [3] it was 1 µM.
Regarding `O=C(Oc1ccccc1)SC1C(=O)N(c2ccccc2)C(SC(=O)Oc2ccccc2)C(=O)N1c1ccccc1` (centres unmarked) [Compound I-10], the MIC in test [5] (setting [9]) is 42 µg/mL (≈ 73.6 µM). Also, the IC50 in test [2] turned out to be 25 µM; in test [3] it was 1 µM.
For the compound `CC(=O)SC1C(=O)N(Cc2ccccc2)C(SC(C)=O)C(=O)N1Cc1ccccc1` (centres unmarked) [Compound I-6], the MIC is 10 µg/mL (≈ 22.6 µM) in test [5] (setting [9]); 21 µg/mL (≈ 47.5 µM) in test [1] (setting [10]); 42 µg/mL (≈ 94.9 µM) in test [6] (ATCC10541, Enterococcus faecium ATCC 10541, agar dilution, pH 7, read-out: MIC EF). Moreover, the IC50 is 7 µM in test [2] and 4 µM in test [3].
With `O=C1C2SSC(C(=O)N2c2ccccc2)N1c1ccccc1` [Compound I-8], the IC50 in test [2] was 10 µM; in test [3], 0.7 µM.
With `O=C(SC1C(=O)N(c2ccccc2)C(SC(=O)c2ccccc2)C(=O)N1c1ccccc1)c1ccccc1` (centres unmarked) [Compound I-9], the values for the IC50 in test [2] and in test [3] were 9 µM and 3 µM, respectively.
With `COCN1C(=O)C(SC(C)=O)N(COC)C(=O)C1SC(C)=O` (centres unmarked) [Compound I-5], the IC50 amounted to 8 µM in test [2] and 0.4 µM in test [3].
With `COc1ccccc1N1C(=O)C(SC(C)=O)N(C)C(=O)C1SC(C)=O` (centres unmarked) [Compound I-2], the IC50 in test [2] is 9 µM; in test [3], 0.5 µM.
Regarding `CN1C(=O)C2(CO)SSC1(CO)C(=O)N2c1ccccc1` (centres unmarked) [Compound I-21], the values for the MIC in test [1] (setting [7]) and in test [6] (setting [11]) were 21 µg/mL (≈ 64.3 µM) and 0.33 µg/mL (≈ 1.01 µM), respectively. Moreover, the IC50 in test [2] came to 3 µM; in test [3], 0.2 µM.
`CN1C(=O)C2SSC1(CO)C(=O)N2c1ccccc1` (centres unmarked) [Compound I-13]: the MIC in test [5] (setting [8]) is 42 µg/mL (≈ 142 µM); in test [1] (setting [7]), 0.041 µg/mL (≈ 0.138 µM); in test [6] (setting [11]) it was 0.16 µg/mL (≈ 0.54 µM). For the same compound, the IC50 in test [2] worked out at 5 µM; in test [3], 0.1 µM. For the same compound, the “T/C (ratio of tumor volume, treated to untreated)” value in test [4] (0.75 mg/kg) came out at 0.44.
Consider `O=C1C2SSC(C(=O)N2Cc2ccccc2)N1Cc1ccccc1` [Compound I-19], for which the MIC is 2.6 µg/mL (≈ 7.29 µM) in test [5] (setting [8]), 83 µg/mL (≈ 233 µM) in test [1] (setting [7]) and 83 µg/mL (≈ 233 µM) in test [6] (setting [11]). In test [2], this compound displayed an IC50 of 7 µM.
In the case of `CN1C(=O)C2SSC1C(=O)N2c1ccccc1` (centres unmarked) [Compound I-7], the results for the IC50 in test [2] and in test [3] were 60 µM and 0.2 µM, respectively.
Turning to `COc1ccc(Br)cc1N1C(=O)C(SC(C)=O)N(C)C(=O)C1SC(C)=O` (centres unmarked) [Compound I-3], the IC50 was determined as 9 µM in test [2] and 1.5 µM in test [3].
Take `CN1C(=O)C2SSC1(COCc1ccccc1)C(=O)N2c1ccccc1` (centres unmarked) [Compound I-11]: the minimal inhibitory concentration (MIC) came out at 0.46 µg/mL (≈ 1.19 µM) in test [5] (setting [8]) and 7.3 µg/mL (≈ 18.9 µM) in test [1] (setting [7]). Moreover, the IC50 in test [2] and in test [3] was 3 µM in each case.
`CC(=O)OCC1(SC(C)=O)C(=O)N(c2ccccc2)C(SC(C)=O)C(=O)N1C` (centres unmarked) [Compound I-16]: the results for the MIC in test [1] (setting [7]) and in test [6] (setting [11]) were 5.2 µg/mL (≈ 12.2 µM) and 42 µg/mL (≈ 98.9 µM), respectively. Moreover, the IC50 is 20 µM in test [2] and 1.7 µM in test [3].
Regarding `COc1ccccc1N1C(=O)C2(CO)SSC1(CO)C(=O)N2C` (centres unmarked) [Compound I-15], the MIC worked out at 0.33 µg/mL (≈ 0.926 µM) in test [1] (setting [7]) and 1.3 µg/mL (≈ 3.65 µM) in test [6] (setting [11]). Besides, the IC50 in test [2] turned out to be 7 µM; in test [3] it was 0.3 µM.
Turning to `COCN1C(=O)C(SC(=O)Oc2ccccc2)N(COC)C(=O)C1SC(=O)Oc1ccccc1` (centres unmarked) [Compound I-17], the MIC in test [1] (setting [10]) was determined as 42 µg/mL (≈ 82.9 µM). Also, the IC50 in test [2] was 5 µM; in test [3], 0.3 µM.
